Results as given in patent publication US20250059174A1, “Pharmaceutical Compounds and Compositions as C-Kit Kinase Inhibitors” (Enanta Pharmaceuticals, Inc., priority 2023, published 2025).
pIC50: −log10 of the molar value.

The molecules below were run against Recombinant human c-KIT kinase (Homo sapiens (Human), UniProt P10721) (assay: c-KIT kinase chemiluminescence assay (ADP-Glo)). Details: ATP 50 μM.
Type: biochemical
Experimental: The c-KIT Kinase Enzyme System (V4498) and ADP-Glo™ Kinase Assay kit (V6930) were purchased from Promega (Madison, WI). DMSO (D2650) was purchased from Sigma-Aldrich (Burlington, MA).
Kinase Reaction: The kinase assay was based on the recommended protocol by c-KIT Kinase Enzyme System from Promega. Recombinant human c-KIT kinase in 3 μL of assay buffer (40 mM Tris pH 7.5, 20 mM MgCl2, 0.1 mg/mL BSA and 50 μM DTT) was added to the test or high control wells and 3 μL of assay buffer was added to the low control wells. The microplate was centrifuged at 800 rotations per minute (rpm) for 60 s and incubated at room temperature (RT) for 30 min. Next, 2 μL of buffered ATP and polyEY substrate solution was added to all wells. The microplate was centrifuged at 800 rpm for 60 s and incubated at RT for 2 h.
ADP detection with ADP-Glo™ Kinase Assay: After the kinase reaction incubation, 5 μL of ADP-Glo™ reagent was added to all wells. The microplate was centrifuged at 800 rpm for 60 s and incubated at RT for 40 min. Ten microliter (10 μL) of Kinase Detection Reagent (Luciferin-Luciferase system) was then added to all wells. The microplate was centrifuged at 800 rpm for 60 s and incubated at RT for 60 min. Kinase activity was measured as increase in luminescence at RT in an Envision plate reader equipped with 560 nm filters and operating in endpoint mode. Data Analysis: Endpoint chemiluminescence from high and low control wells were used to calculate normalized c-KIT activity at various concentrations of test compounds. The normalized activities were fitted to inhibitor-versus-normalized response fit in GraphPad Prism 7 to determine half-maximal inhibitory concentration (IC50) and hill coefficient values (H).
Where I is the inhibitor concentration and H is the Hill coefficient.

Chain of Recombinant human c-KIT kinase (P10721 26-976): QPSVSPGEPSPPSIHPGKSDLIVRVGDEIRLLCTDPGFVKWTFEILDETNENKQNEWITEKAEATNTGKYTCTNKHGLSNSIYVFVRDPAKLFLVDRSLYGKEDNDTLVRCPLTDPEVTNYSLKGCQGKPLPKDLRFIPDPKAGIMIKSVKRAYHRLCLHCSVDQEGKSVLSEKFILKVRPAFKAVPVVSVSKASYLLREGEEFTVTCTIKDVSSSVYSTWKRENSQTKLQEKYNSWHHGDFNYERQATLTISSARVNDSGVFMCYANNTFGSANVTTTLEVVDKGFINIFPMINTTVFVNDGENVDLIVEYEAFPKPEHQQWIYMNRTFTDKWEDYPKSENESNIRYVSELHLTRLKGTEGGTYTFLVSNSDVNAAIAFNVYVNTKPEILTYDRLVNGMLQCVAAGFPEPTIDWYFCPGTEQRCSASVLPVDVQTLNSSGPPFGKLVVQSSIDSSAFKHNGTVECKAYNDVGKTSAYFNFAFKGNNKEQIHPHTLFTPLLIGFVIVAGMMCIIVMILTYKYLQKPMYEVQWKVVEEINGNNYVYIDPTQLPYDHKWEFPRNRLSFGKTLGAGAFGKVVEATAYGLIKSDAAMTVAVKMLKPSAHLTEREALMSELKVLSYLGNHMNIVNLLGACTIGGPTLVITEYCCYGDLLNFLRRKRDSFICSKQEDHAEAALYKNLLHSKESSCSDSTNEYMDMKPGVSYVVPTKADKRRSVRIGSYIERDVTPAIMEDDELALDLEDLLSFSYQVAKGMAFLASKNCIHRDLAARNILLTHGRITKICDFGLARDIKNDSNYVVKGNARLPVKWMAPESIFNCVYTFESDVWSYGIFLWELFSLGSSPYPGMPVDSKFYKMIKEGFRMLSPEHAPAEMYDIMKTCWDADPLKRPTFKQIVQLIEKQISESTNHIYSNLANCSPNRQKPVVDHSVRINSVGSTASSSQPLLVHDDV

First: Cc1ccc(-c2noc([C@H]3C[C@@H]3F)n2)cc1NC(=O)c1cnc2cnccn12 [Example 1]
Second: Cc1ccc(-c2noc([C@H]3C[C@@H]3F)n2)cc1NC(=O)c1cnc2ncccn12 [Example 25]
The pIC50 of the first is higher: 6.00 to 7.00 for the first, < 6.00 for the second.

`Cc1ccc(-c2noc([C@H]3C[C@@H]3F)n2)cc1NC(=O)c1ccnc2cnccc12` [Example 8] and `Cc1ccc(-c2noc([C@H]3C[C@@H]3F)n2)cc1NC(=O)c1ccnc2ncccc12` [Example 12] cannot be ordered by pIC50: < 6.00 for the first, < 6.00 for the second.

First: Cc1ccc(-c2noc([C@H]3C[C@@H]3F)n2)cc1NC(=O)c1cnn2c1CCCC2 [Example 9]
Second: Cc1ccc(-c2noc([C@H]3C[C@@H]3F)n2)cc1NC(=O)c1cnc2n1CCCC2 [Example 10]
The pIC50 of the first is lower: < 6.00 for the first, 6.00 to 7.00 for the second. The second is the more potent here.

`Cc1ccc(-c2noc([C@H]3C[C@@H]3F)n2)cc1NC(=O)c1cnn(C)c1C` [Example 11] and `Cc1ccc(-c2noc([C@H]3C[C@@H]3F)n2)cc1NC(=O)c1cnn2ncccc12` [Example 18] cannot be ordered by pIC50: < 6.00 for the first, < 6.00 for the second.

`Cc1ccc(-c2noc([C@H]3C[C@@H]3F)n2)cc1NC(=O)c1cncn1-c1ccccc1` [Example 17] and `Cc1ccc(-c2noc([C@H]3C[C@@H]3F)n2)cc1NC(=O)c1cnn(-c2ccccc2)n1` [Example 83] cannot be ordered by pIC50: < 6.00 for the first, < 6.00 for the second.

`Cc1ccc(-c2noc([C@H]3C[C@@H]3F)n2)cc1NC(=O)c1csc2cncnc12` [Example 19] and `Cc1ccc(-c2noc([C@H]3C[C@@H]3F)n2)cc1NC(=O)c1cnc2ncsc2c1` [Example 50] cannot be ordered by pIC50: < 6.00 for the first, < 6.00 for the second.

`Cc1ccc(-c2noc([C@H]3C[C@@H]3F)n2)cc1NC(=O)c1nnc2ccccn12` [Example 20] and `Cc1ccc(-c2noc([C@H]3C[C@@H]3F)n2)cc1NC(=O)c1nnn2ccccc12` [Example 21] cannot be ordered by pIC50: < 6.00 for the first, < 6.00 for the second.

`Cc1ccc(-c2noc([C@H]3C[C@@H]3F)n2)cc1NC(=O)c1cn(-c2ccccc2)nn1` [Example 22] and `Cc1ccc(-c2noc([C@H]3C[C@@H]3F)n2)cc1NC(=O)c1cn(-c2ccccc2)nc1C` [Example 53] cannot be ordered by pIC50: < 6.00 for the first, < 6.00 for the second.

`Cc1ccc(-c2noc([C@H]3C[C@@H]3F)n2)cc1NC(=O)c1cnc(-c2ccccc2F)s1` [Example 24] and `Cc1ccc(-c2noc([C@H]3C[C@@H]3F)n2)cc1NC(=O)c1cnc(-c2ccccc2)s1` [Example 84] fall in the same range of pIC50: 6.00 to 7.00 for the first, 6.00 to 7.00 for the second.

`Cc1ccc(-c2noc([C@H]3C[C@@H]3F)n2)cc1NC(=O)c1ccnc2ccnn12` [Example 26] and `Cc1ccc(-c2noc([C@H]3C[C@@H]3F)n2)cc1NC(=O)c1cnc2ccnn2c1` [Example 47] cannot be ordered by pIC50: < 6.00 for the first, < 6.00 for the second.

`Cc1ccc(-c2noc([C@H]3C[C@@H]3F)n2)cc1NC(=O)c1cnc2ncccc2c1` [Example 28] and `Cc1ccc(-c2noc([C@H]3C[C@@H]3F)n2)cc1NC(=O)c1cnc2cnccc2c1` [Example 63] cannot be ordered by pIC50: < 6.00 for the first, < 6.00 for the second.

`Cc1ccc(-c2noc([C@H]3C[C@@H]3F)n2)cc1NC(=O)c1cnc2sccc2c1` [Example 29] and `Cc1ccc(-c2noc([C@H]3C[C@@H]3F)n2)cc1NC(=O)c1cnc2[nH]ccc2c1` [Example 33] cannot be ordered by pIC50: < 6.00 for the first, < 6.00 for the second.

`Cc1ccc(-c2noc([C@H]3C[C@@H]3F)n2)cc1NC(=O)c1cnc2[nH]ncc2c1` [Example 31] and `Cc1ccc(-c2noc([C@H]3C[C@@H]3F)n2)cc1NC(=O)c1cnc2cn[nH]c2c1` [Example 48] cannot be ordered by pIC50: < 6.00 for the first, < 6.00 for the second.

`Cc1ccc(-c2noc([C@H]3C[C@@H]3F)n2)cc1NC(=O)c1cnc2c(cnn2C(=O)C(C)C)c1` [Example 32] and `Cc1ccc(-c2noc([C@H]3C[C@@H]3F)n2)cc1NC(=O)c1cnc2cnn(C(=O)C(C)C)c2c1` [Example 49] cannot be ordered by pIC50: < 6.00 for the first, < 6.00 for the second.

`Cc1ccc(-c2noc([C@H]3C[C@@H]3F)n2)cc1NC(=O)c1cnc2cccn2c1` [Example 45] and `Cc1ccc(-c2noc([C@H]3C[C@@H]3F)n2)cc1NC(=O)c1cnc2nccn2c1` [Example 46] cannot be ordered by pIC50: < 6.00 for the first, < 6.00 for the second.

`Cc1ccc(-c2noc([C@H]3C[C@@H]3F)n2)cc1NC(=O)c1cnn(-c2ccc(Cl)cc2)c1` [Example 51] and `Cc1ccc(-c2noc([C@H]3C[C@@H]3F)n2)cc1NC(=O)c1cnn(-c2cccc(Cl)c2)c1` [Example 81] cannot be ordered by pIC50: < 6.00 for the first, < 6.00 for the second.

`Cc1ccc(-c2noc([C@H]3C[C@@H]3F)n2)cc1NC(=O)c1cnc2ccncc2c1` [Example 64] and `Cc1ccc(-c2noc([C@H]3C[C@@H]3F)n2)cc1NC(=O)c1cnc2[nH]cnc2c1` [Example 66] cannot be ordered by pIC50: < 6.00 for the first, < 6.00 for the second.

`Cc1ccc(-c2noc([C@H]3C[C@@H]3F)n2)cc1NC(=O)c1cnc2ccccc2n1` [Example 65] and `Cc1ccc(-c2noc([C@H]3C[C@@H]3F)n2)cc1NC(=O)c1cnc(-c2ccccc2)[nH]1` [Example 77] cannot be ordered by pIC50: < 6.00 for the first, < 6.00 for the second.

`Cc1ccc(-c2noc([C@H]3C[C@@H]3F)n2)cc1NC(=O)c1cnc2c(c1)ncn2C(=O)C(C)C` [Example 67] and `Cc1ccc(-c2noc([C@H]3C[C@@H]3F)n2)cc1NC(=O)c1cn2ccsc2n1` [Example 68] cannot be ordered by pIC50: < 6.00 for the first, < 6.00 for the second.

First: Cc1ccc(-c2noc([C@H]3C[C@@H]3F)n2)cc1NC(=O)c1cnn(-c2ccccn2)c1 [Example 75]
Second: Cc1ccc(-c2noc([C@H]3C[C@@H]3F)n2)cc1NC(=O)c1cnn(-c2ccccc2Cl)c1 [Example 76]
The pIC50 of the first is higher: 6.00 to 7.00 for the first, < 6.00 for the second. The first is the more potent here.

First: COc1ccccc1-c1ncc(C(=O)Nc2cc(-c3noc([C@H]4C[C@@H]4F)n3)ccc2C)[nH]1 [Example 78]
Second: Cc1ccc(-c2noc([C@H]3C[C@@H]3F)n2)cc1NC(=O)c1cnc2n1CCOc1ccccc1-2 [Example 101]
The pIC50 of the first is lower: < 6.00 for the first, 6.00 to 7.00 for the second.

`Cc1ccc(-c2noc([C@H]3C[C@@H]3F)n2)cc1NC(=O)c1cn[nH]c1-c1ccccc1` [Example 79] and `Cc1ccc(-c2noc([C@H]3C[C@@H]3F)n2)cc1NC(=O)c1cnn2c1ccc1ccccc12` [Example 88] fall in the same range of pIC50: 6.00 to 7.00 for the first, 6.00 to 7.00 for the second.

First: COc1cccc(-n2cc(C(=O)Nc3cc(-c4noc([C@H]5C[C@@H]5F)n4)ccc3C)cn2)c1 [Example 80]
Second: Cc1ccc(-c2noc([C@H]3C[C@@H]3F)n2)cc1NC(=O)c1cnn(-c2cccc(Br)c2)c1 [Example 82]
The pIC50 of the first is higher: 6.00 to 7.00 for the first, < 6.00 for the second. The first is the more potent here.

Compared with `Cc1ccc(-c2noc([C@H]3C[C@@H]3F)n2)cc1NC(=O)n1c(=O)[nH]c2ccccc21` [Example 86], `C#Cc1ccc2c(C(=O)Nc3cc(-c4noc([C@H]5C[C@@H]5F)n4)ccc3C)cnn2c1` [Example 106] is higher in pIC50: < 6.00 for the first, > 7.00 for the second.

Compared with `Cc1ccc(-c2noc([C@H]3C[C@@H]3F)n2)cc1NC(=O)c1cnn(-c2cccc(NC(=O)OC(C)(C)C)c2)c1` [Example 87], `Cc1ccc(-c2noc([C@H]3C[C@@H]3F)n2)cc1NC(=O)c1cnn2cc(-c3cnn(C(C)(C)CO)c3)ccc12` [Example 141] is higher in pIC50: < 6.00 for the first, > 7.00 for the second. The second is the more potent here.

Compared with `Cc1ccc(-c2noc([C@H]3C[C@@H]3F)n2)cc1NC(=O)c1cnn2ccc(C(=O)N3CCCCC3)cc12` [Example 89], `Cc1ccc(-c2noc([C@H]3C[C@@H]3F)n2)cc1NC(=O)c1cnn2ccc(C(=O)NC3CCCCC3)cc12` [Example 91] is higher in pIC50: < 6.00 for the first, 6.00 to 7.00 for the second. The second is the more potent here.

`Cc1ccc(-c2noc([C@H]3C[C@@H]3F)n2)cc1NC(=O)c1cnn2cc(-c3cn(C(F)F)nn3)ccc12` [Example 107] and `Cc1ccc(-c2noc([C@H]3C[C@@H]3F)n2)cc1NC(=O)c1cnn2cc(-c3cnn(C(F)F)c3)ccc12` [Example 133] cannot be ordered by pIC50: > 7.00 for the first, > 7.00 for the second.

`Cc1ccc(-c2noc([C@H]3C[C@@H]3F)n2)cc1NC(=O)c1cnn2cc(-c3ccn(C(F)F)n3)ccc12` [Example 134] and `Cc1ccc(-c2noc([C@H]3C[C@@H]3F)n2)cc1NC(=O)c1cnn2cc(-c3cnn(CCO)c3)ccc12` [Example 139] cannot be ordered by pIC50: > 7.00 for the first, > 7.00 for the second.

`Cc1ccc(-c2noc([C@H]3C[C@@H]3F)n2)cc1NC(=O)c1cnn2cc(-c3cnn(C4COC4)c3)ccc12` [Example 137] and `Cc1ccc(-c2noc([C@H]3C[C@@H]3F)n2)cc1NC(=O)c1cnn2cc(-c3cnn(CC(C)(C)O)c3)ccc12` [Example 143] cannot be ordered by pIC50: > 7.00 for the first, > 7.00 for the second.

First: Cc1ccc(-c2noc([C@H]3C[C@@H]3F)n2)cc1NC(=O)c1cnn2cc(Cl)c(N3CC4(COC4)C3)cc12 [Example 229]
Second: Cc1ccc(-c2noc([C@H]3C[C@@H](OC(F)F)C3)n2)cc1NC(=O)c1cnn2ccc(N3CC4(COC4)C3)cc12 [Example 242]
The pIC50 of the first is lower: 6.00 to 7.00 for the first, > 7.00 for the second. The second is the more potent here.

`Cc1ccc(-c2noc([C@H]3C[C@@H]3F)n2)cc1NC(=O)c1cnc(-c2ccc3c(cnn3CC(C)(C)O)c2)o1` [Example 308-65] and `Cc1ccc(-c2noc([C@H]3C[C@@H]3F)n2)cc1NC(=O)c1cnc(-c2ccc3nn(CC(C)(C)O)cc3c2)o1` [Example 308-66] cannot be ordered by pIC50: > 7.00 for the first, > 7.00 for the second.

First: Cc1ncc(-c2nnn(C3CN(C(=O)C4CC4)C3)n2)cc1NC(=O)c1cnn2ccc(N3CC4(C3)CC(O)(C(F)F)C4)cc12 [Example 312-10]
Second: O=C(Nc1cn(-c2ccc(C3CC3)cc2)nc1C(F)F)c1cnn2ccc(N3CC4(COC4)C3)cc12 [compound 373]
The pIC50 of the first is higher: 6.00 to 7.00 for the first, < 6.00 for the second. The first is the more potent here.
